Assay results from the NIST ThermoML archive (doi:10.1021/je700321s).

Test: xn = mol fraction of the nth substance listed
Settings: Liquid, Vibrating tube method

CC(C)O [propan-2-ol] + O=C=O
Settings	mass density [kg/m3]
313.08 K, 10061 kPa, x2 = 0.7943	800.9
313.08 K, 10515 kPa, x2 = 0.7943	804
313.08 K, 11013 kPa, x2 = 0.7943	807.3
313.08 K, 11507 kPa, x2 = 0.7943	810.6
313.08 K, 11994 kPa, x2 = 0.7943	813.5
313.08 K, 12199 kPa, x2 = 0.7943	814.6
313.08 K, 12410 kPa, x2 = 0.7943	815.6
313.08 K, 12606 kPa, x2 = 0.7943	816.7
313.09 K, 2502 kPa, x2 = 0.139	781.7
313.09 K, 3002 kPa, x2 = 0.139	782.3
313.09 K, 3513 kPa, x2 = 0.139	782.9
313.09 K, 4008 kPa, x2 = 0.139	783.5
313.09 K, 4501 kPa, x2 = 0.139	784.1
313.09 K, 5001 kPa, x2 = 0.139	784.7
313.09 K, 5497 kPa, x2 = 0.139	785.3
313.09 K, 6023 kPa, x2 = 0.139	785.9
313.09 K, 6504 kPa, x2 = 0.139	786.5
313.09 K, 7026 kPa, x2 = 0.139	787.1
313.09 K, 7489 kPa, x2 = 0.139	787.6
313.09 K, 7960 kPa, x2 = 0.9492	642.1
313.09 K, 7998 kPa, x2 = 0.139	788.2
313.09 K, 8001 kPa, x2 = 0.9492	648.3
313.09 K, 8200 kPa, x2 = 0.9492	666.4
313.09 K, 8400 kPa, x2 = 0.9492	677.7
313.09 K, 8509 kPa, x2 = 0.139	788.8
313.09 K, 8606 kPa, x2 = 0.9492	688.5
313.09 K, 8803 kPa, x2 = 0.9492	697
313.09 K, 8995 kPa, x2 = 0.139	789.3
313.09 K, 9002 kPa, x2 = 0.9492	704
313.09 K, 9201 kPa, x2 = 0.9492	710.9
313.09 K, 9408 kPa, x2 = 0.9492	717.1
313.09 K, 9503 kPa, x2 = 0.139	789.8
313.09 K, 9604 kPa, x2 = 0.9492	722.7
313.09 K, 9800 kPa, x2 = 0.9492	728.1
313.09 K, 10003 kPa, x2 = 0.9492	733.1
313.09 K, 10201 kPa, x2 = 0.9492	737.5
313.09 K, 10405 kPa, x2 = 0.9492	741.5
313.09 K, 10605 kPa, x2 = 0.9492	744.7
313.09 K, 10803 kPa, x2 = 0.9492	747.4
313.1 K, 3601 kPa, x2 = 0.2003	786.8
313.1 K, 4007 kPa, x2 = 0.2003	787.4
313.1 K, 4523 kPa, x2 = 0.2003	788.1
313.1 K, 5069 kPa, x2 = 0.2003	788.7
313.1 K, 5497 kPa, x2 = 0.2003	789.3
313.1 K, 5812 kPa, x2 = 0.4248	801.4
313.1 K, 6012 kPa, x2 = 0.4248	801.7
313.1 K, 6027 kPa, x2 = 0.2003	790
313.1 K, 6200 kPa, x2 = 0.4248	802.1
313.1 K, 6395 kPa, x2 = 0.4248	802.6
313.1 K, 6504 kPa, x2 = 0.2003	790.7
313.1 K, 6602 kPa, x2 = 0.4248	803.1
313.1 K, 6803 kPa, x2 = 0.4248	803.5
313.1 K, 7010 kPa, x2 = 0.2003	791.3
313.1 K, 7055 kPa, x2 = 0.4248	804.1
313.1 K, 7208 kPa, x2 = 0.4248	804.3
313.1 K, 7409 kPa, x2 = 0.4248	804.8
313.1 K, 7494 kPa, x2 = 0.2003	791.9
313.1 K, 7611 kPa, x2 = 0.4248	805.2
313.1 K, 7802 kPa, x2 = 0.4248	805.7
313.1 K, 7989 kPa, x2 = 0.2003	792.6
313.1 K, 7998 kPa, x2 = 0.4248	806.1
313.1 K, 8201 kPa, x2 = 0.4248	806.5
313.1 K, 8557 kPa, x2 = 0.2003	793.2
313.1 K, 8597 kPa, x2 = 0.4248	807.3
313.1 K, 8797 kPa, x2 = 0.4248	807.6
313.1 K, 9017 kPa, x2 = 0.2003	793.8
313.1 K, 9024 kPa, x2 = 0.4248	808.1
313.1 K, 9602 kPa, x2 = 0.4248	809.3
313.1 K, 9636 kPa, x2 = 0.2003	794.6
313.1 K, 10055 kPa, x2 = 0.4248	810.1
313.12 K, 6801 kPa, x2 = 0.6086	802.8
313.12 K, 7000 kPa, x2 = 0.6086	803.5
313.12 K, 7203 kPa, x2 = 0.6086	804.4
313.12 K, 7402 kPa, x2 = 0.6086	805.2
313.12 K, 7602 kPa, x2 = 0.6086	806
313.12 K, 7804 kPa, x2 = 0.6086	806.8
313.12 K, 8010 kPa, x2 = 0.6086	807.7
313.12 K, 8124 kPa, x2 = 0.9715	526.2
313.12 K, 8197 kPa, x2 = 0.6086	808.3
313.12 K, 8400 kPa, x2 = 0.6086	809.1
313.12 K, 8526 kPa, x2 = 0.9715	627.3
313.12 K, 8602 kPa, x2 = 0.6086	809.8
313.12 K, 8812 kPa, x2 = 0.6086	810.5
313.12 K, 9000 kPa, x2 = 0.6086	811.3
313.12 K, 9002 kPa, x2 = 0.9715	662.5
313.12 K, 9213 kPa, x2 = 0.6086	812
313.12 K, 9392 kPa, x2 = 0.6086	812.6
313.12 K, 9522 kPa, x2 = 0.9715	689
313.12 K, 9600 kPa, x2 = 0.6086	813.3
313.12 K, 9802 kPa, x2 = 0.6086	814
313.12 K, 10001 kPa, x2 = 0.6086	814.6
313.12 K, 10021 kPa, x2 = 0.9715	708.1
313.12 K, 10520 kPa, x2 = 0.9715	722.7
313.12 K, 10993 kPa, x2 = 0.9715	734.9
313.12 K, 11514 kPa, x2 = 0.9715	746.8
313.12 K, 12038 kPa, x2 = 0.9715	757.3
313.12 K, 12512 kPa, x2 = 0.9715	765.8
313.12 K, 13003 kPa, x2 = 0.9715	773.6
313.12 K, 13500 kPa, x2 = 0.9715	781.1
313.12 K, 13998 kPa, x2 = 0.9715	788.2
313.12 K, 14495 kPa, x2 = 0.9715	794.8
313.12 K, 15008 kPa, x2 = 0.9715	801.1
323.03 K, 6842 kPa, x2 = 0.4248	786.9
323.03 K, 7010 kPa, x2 = 0.4248	787.3
323.03 K, 7302 kPa, x2 = 0.4248	788.1
323.03 K, 7530 kPa, x2 = 0.4248	788.6
323.03 K, 8004 kPa, x2 = 0.4248	789.7
323.03 K, 8302 kPa, x2 = 0.4248	790.4
323.03 K, 8401 kPa, x2 = 0.4248	790.6
323.03 K, 8500 kPa, x2 = 0.4248	790.8
323.03 K, 8603 kPa, x2 = 0.4248	791.2
323.03 K, 8710 kPa, x2 = 0.4248	791.4
323.03 K, 8821 kPa, x2 = 0.4248	791.7
323.03 K, 9000 kPa, x2 = 0.4248	792.1
323.03 K, 9209 kPa, x2 = 0.4248	792.5
323.03 K, 9309 kPa, x2 = 0.4248	792.8
323.03 K, 9401 kPa, x2 = 0.4248	793.1
323.03 K, 9502 kPa, x2 = 0.4248	793.3
323.03 K, 9601 kPa, x2 = 0.4248	793.4
323.03 K, 9728 kPa, x2 = 0.4248	793.7
323.05 K, 2995 kPa, x2 = 0.139	771.3
323.05 K, 3503 kPa, x2 = 0.139	771.9
323.05 K, 4003 kPa, x2 = 0.139	772.6
323.05 K, 4494 kPa, x2 = 0.139	773.2
323.05 K, 5074 kPa, x2 = 0.139	773.9
323.05 K, 5511 kPa, x2 = 0.139	774.5
323.05 K, 6033 kPa, x2 = 0.139	775.2
323.05 K, 7021 kPa, x2 = 0.139	776.4
323.05 K, 7506 kPa, x2 = 0.6086	779.7
323.05 K, 7514 kPa, x2 = 0.139	777.1
323.05 K, 7703 kPa, x2 = 0.6086	780.7
323.05 K, 7803 kPa, x2 = 0.6086	781.1
